Measured values: ChEMBL document CHEMBL2385075, “Anti-inflammatory and antinociceptive activity of epiisopiloturine, an imidazole alkaloid isolated from Pilocarpus microphyllus” (J Nat Prod, 2013)
Active and inactive are the calls of the source. The calls are words filed in the database; no cut-off is given here.

Legend:
[1] = system: Mus musculus; assay: Neurotoxicity in Swiss mouse assessed as motor impairment at 5 mg/kg, ip administered 60 mins measured for 1 min by rotarod test; type: toxicity, organism-based; parameters: dose 5 mg/kg, route intraperitoneal; conditions: in vivo
[2] = system: Mus musculus; assay: Antinociceptive activity in Swiss mouse assessed as inhibition of formalin-induced paw licking at 1 mg/kg, ip administered 30 mins prior to formalin challenge measured during neurogenic phase for 1 to 5 mins in presence of opioid receptor antagonist naloxone; type: functional, organism-based; parameters: dose 1 mg/kg
[3] = system: Mus musculus; assay: Antinociceptive activity in Swiss mouse assessed as inhibition of formalin-induced paw licking at 1 mg/kg, ip administered 30 mins prior to formalin challenge measured during inflammatory phase for 20 to 25 mins; type: functional; conditions: route intraperitoneal
[4] = system: Mus musculus; assay: Antinociceptive activity in Swiss mouse assessed as inhibition of formalin-induced paw licking at 1 mg/kg, ip administered 30 mins prior to formalin challenge measured during neurogenic phase for 1 to 5 mins; type: functional; conditions: route intraperitoneal
[5] = system: Mus musculus; assay: Neurotoxicity in Swiss mouse assessed as motor impairment at 1 to 10 mg/kg, ip administered 60 mins measured for 1 min by rotarod test; type: toxicity, organism-based; parameters: dose 1-10 mg/kg, route intraperitoneal; conditions: in vivo
[6] = system: Mus musculus; assay: Antinociceptive activity in Swiss mouse assessed as increase in latency time at 1 mg/kg, ip administered 30 mins prior to testing measured after 30 to 120 mins by hot plate test; type: functional, organism-based; parameters: dose 1 mg/kg
[7] = system: Mus musculus; assay: Antinociceptive activity in Swiss mouse assessed as inhibition of acetic acid-induced abdominal writhing response at 1 mg/kg, ip administered 30 mins prior to acetic acid challenge measured for 10 to 20 mins; type: functional; conditions: Abdomen, route intraperitoneal
[8] = system: Mus musculus; assay: Antiinflammatory activity in Swiss mouse assessed as reduction of carrageenan-induced IL-1beta level into peritoneal fluid at 1 mg/kg, ip administered 1 hr prior to carrageenan challenge measured after 4 hrs by sandwich ELISA; type: functional, organism-based; parameters: dose 1 mg/kg
[9] = system: Mus musculus; assay: Antiinflammatory activity in Swiss mouse assessed as reduction of carrageenan-induced TNFalpha level into peritoneal fluid at 1 mg/kg, ip administered 1 hr prior to carrageenan challenge measured after 4 hrs by sandwich ELISA; type: functional, organism-based; parameters: dose 1 mg/kg
[10] = system: Mus musculus; assay: Antiinflammatory activity in Swiss mouse assessed as inhibition of carrageenan-induced neutrophil migration into peritoneal cavity at 1 mg/kg, ip administered 30 mins prior to carrageenan challenge measured after 4 hrs relative to carrageenan-treated control; type: functional; conditions: route intraperitoneal
[11] = system: Mus musculus; assay: Antiinflammatory activity in Swiss mouse assessed as inhibition of carrageenan-induced total leukocytes migration into peritoneal cavity at 1 mg/kg, ip administered 30 mins prior to carrageenan challenge measured after 4 hrs relative to carrageenan-treated control; type: functional; conditions: route intraperitoneal
[12] = system: Mus musculus; assay: Antiinflammatory activity in Swiss mouse assessed as reduction of carrageenan-induced paw myeloperoxidase activity measured per mg of tissue at 1 mg/kg, ip administered 30 mins prior to carrageenan challenge measured after 4 hrs (reference value: 10.9 +/- 1.2 U); type: functional; conditions: route intraperitoneal
[13] = system: Mus musculus; assay: Antiinflammatory activity in Swiss mouse assessed as inhibition of histamine-induced paw edema at 1 mg/kg, ip administered 30 mins prior to histamine challenge measured after 60 mins relative to untreated control; type: functional, organism-based; parameters: dose 1 mg/kg
[14] = system: Mus musculus; assay: Antiinflammatory activity in Swiss mouse assessed as inhibition of bradykinin-induced paw edema at 1 mg/kg, ip administered 30 mins prior to bradykinin challenge measured after 60 mins in presence of captopril relative to untreated control; type: functional; conditions: route intraperitoneal
[15] = system: Mus musculus; assay: Antiinflammatory activity in Swiss mouse assessed as inhibition of serotonin-induced paw edema at 1 mg/kg, ip administered 30 mins prior to serotonin challenge measured after 4 hrs relative to untreated control; type: functional; conditions: route intraperitoneal
[16] = system: Mus musculus; assay: Antiinflammatory activity in Swiss mouse assessed as inhibition of dextran sulfate-induced paw edema at 1 mg/kg, ip administered 30 mins prior to dextran sulfate challenge measured after 4 hrs relative to untreated control; type: functional; conditions: route intraperitoneal
[17] = system: Mus musculus; assay: Antiinflammatory activity in Swiss mouse assessed as inhibition of carrageenan-induced paw edema at 1 mg/kg, ip measured at 4 hrs by plethysmometric analysis relative to untreated control; type: functional; conditions: route intraperitoneal
[18] = system: Mus musculus; assay: Antiinflammatory activity in Swiss mouse assessed as inhibition of carrageenan-induced paw edema at 0.3 mg/kg, ip measured at 4 hrs by plethysmometric analysis relative to untreated control; type: functional; conditions: route intraperitoneal
[19] = system: Mus musculus; assay: Antiinflammatory activity in Swiss mouse assessed as inhibition of carrageenan-induced paw edema at 0.1 mg/kg, ip measured at 4 hrs by plethysmometric analysis relative to untreated control; type: functional; conditions: route intraperitoneal
[20] = system: Mus musculus; assay: Antiinflammatory activity in Swiss mouse assessed as inhibition of carrageenan-induced paw edema at 1 mg/kg, ip measured at 3 hrs by plethysmometric analysis relative to untreated control; type: functional; conditions: route intraperitoneal
[21] = system: Mus musculus; assay: Antiinflammatory activity in Swiss mouse assessed as inhibition of carrageenan-induced paw edema at 0.3 mg/kg, ip measured at 3 hrs by plethysmometric analysis relative to untreated control; type: functional; conditions: route intraperitoneal
[22] = system: Mus musculus; assay: Antiinflammatory activity in Swiss mouse assessed as inhibition of carrageenan-induced paw edema at 0.1 mg/kg, ip measured at 3 hrs by plethysmometric analysis relative to untreated control; type: functional; conditions: route intraperitoneal
[23] = system: Mus musculus; assay: Antiinflammatory activity in Swiss mouse assessed as inhibition of carrageenan-induced paw edema at 1 mg/kg, ip measured at 2 hrs by plethysmometric analysis relative to untreated control; type: functional; conditions: route intraperitoneal
[24] = system: Mus musculus; assay: Antiinflammatory activity in Swiss mouse assessed as inhibition of carrageenan-induced paw edema at 0.3 mg/kg, ip measured at 2 hrs by plethysmometric analysis relative to untreated control; type: functional; conditions: route intraperitoneal
[25] = system: Mus musculus; assay: Antiinflammatory activity in Swiss mouse assessed as inhibition of carrageenan-induced paw edema at 0.1 mg/kg, ip measured at 2 hrs by plethysmometric analysis relative to untreated control; type: functional; conditions: route intraperitoneal
[26] = system: Mus musculus; assay: Antiinflammatory activity in Swiss mouse assessed as inhibition of carrageenan-induced paw edema at 1 mg/kg, ip measured at 1 hr by plethysmometric analysis relative to untreated control; type: functional; conditions: route intraperitoneal
[27] = system: Mus musculus; assay: Antiinflammatory activity in Swiss mouse assessed as inhibition of carrageenan-induced paw edema at 0.3 mg/kg, ip measured at 1 hr by plethysmometric analysis relative to untreated control; type: functional; conditions: route intraperitoneal
[28] = system: Mus musculus; assay: Antiinflammatory activity in Swiss mouse assessed as inhibition of carrageenan-induced paw edema at 0.1 mg/kg, ip measured at 1 hr by plethysmometric analysis relative to untreated control; type: functional; conditions: route intraperitoneal
[29] = system: Mus musculus; assay: Antiinflammatory activity in Swiss mouse assessed as inhibition of carrageenan-induced neutrophil migration into peritoneal cavity at 10 mg/kg, ip administered 30 mins prior to carrageenan challenge measured after 4 hrs relative to carrageenan-treated control; type: functional; conditions: route intraperitoneal
[30] = system: Mus musculus; assay: Antiinflammatory activity in Swiss mouse assessed as inhibition of carrageenan-induced total leukocytes migration into peritoneal cavity at 10 mg/kg, ip administered 30 mins prior to carrageenan challenge measured after 4 hrs relative to carrageenan-treated control; type: functional; conditions: route intraperitoneal
[31] = system: Mus musculus; assay: Antiinflammatory activity in Swiss mouse assessed as reduction of carrageenan-induced paw myeloperoxidase activity measured per mg of tissue at 10 mg/kg, ip administered 30 mins prior to carrageenan challenge measured after 4 hrs (reference value: 10.9 +/- 1.2 U); type: functional; conditions: route intraperitoneal
[32] = system: Mus musculus; assay: Antiinflammatory activity in Swiss mouse assessed as inhibition of histamine-induced paw edema at 10 mg/kg, ip administered 30 mins prior to histamine challenge measured after 60 mins relative to untreated control; type: functional, organism-based; parameters: dose 10 mg/kg
[33] = system: Mus musculus; assay: Antiinflammatory activity in Swiss mouse assessed as inhibition of bradykinin-induced paw edema at 10 mg/kg, ip administered 30 mins prior to bradykinin challenge measured after 60 mins in presence of captopril relative to untreated control; type: functional, organism-based; parameters: dose 10 mg/kg
[34] = system: Mus musculus; assay: Antiinflammatory activity in Swiss mouse assessed as inhibition of serotonin-induced paw edema at 10 mg/kg, ip administered 30 mins prior to serotonin challenge measured after 4 hrs relative to untreated control; type: functional, organism-based; parameters: dose 10 mg/kg
[35] = system: Mus musculus; assay: Antiinflammatory activity in Swiss mouse assessed as inhibition of dextran sulfate-induced paw edema at 10 mg/kg, ip administered 30 mins prior to dextran sulfate challenge measured after 4 hrs relative to untreated control; type: functional, organism-based; parameters: dose 10 mg/kg
[36] = system: Mus musculus; assay: Antiinflammatory activity in Swiss mouse assessed as inhibition of carrageenan-induced paw edema at 10 mg/kg, ip measured at 4 hrs by plethysmometric analysis relative to untreated control; type: functional; conditions: route intraperitoneal
[37] = system: Mus musculus; assay: Antiinflammatory activity in Swiss mouse assessed as inhibition of carrageenan-induced paw edema at 10 mg/kg, ip measured at 3 hrs by plethysmometric analysis relative to untreated control; type: functional; conditions: route intraperitoneal
[38] = system: Mus musculus; assay: Antiinflammatory activity in Swiss mouse assessed as inhibition of carrageenan-induced paw edema at 10 mg/kg, ip measured at 2 hrs by plethysmometric analysis relative to untreated control; type: functional; conditions: route intraperitoneal
[39] = system: Mus musculus; assay: Antiinflammatory activity in Swiss mouse assessed as inhibition of carrageenan-induced paw edema at 10 mg/kg, ip measured at 1 hr by plethysmometric analysis relative to untreated control; type: functional; conditions: route intraperitoneal
[40] = system: Mus musculus; assay: Antinociceptive activity in Swiss mouse assessed as increase in latency time at 5 mg/kg, sc administered 30 mins prior to testing measured after 30 to 120 mins by hot plate test; type: functional, organism-based; parameters: dose 5 mg/kg
[41] = species: Mus musculus; assay: animal or person; conditions: Swiss, sc, read-out: INH
Description: Antinociceptive activity in Swiss mouse assessed as inhibition of formalin-induced paw licking at 5 mg/kg, sc administered 30 mins prior to formalin challenge measured during inflammatory phase for 20 to 25 mins

[42] = species: Mus musculus; assay: animal or person; conditions: Swiss, sc, read-out: INH; remark: listed apart in the source
Description: Antinociceptive activity in Swiss mouse assessed as inhibition of formalin-induced paw licking at 5 mg/kg, sc administered 30 mins prior to formalin challenge measured during neurogenic phase for 1 to 5 mins

[43] = species: Mus musculus; assay: animal or person; conditions: Swiss, Abdomen, ip, read-out: INH
Description: Antinociceptive activity in Swiss mouse assessed as inhibition of acetic acid-induced abdominal writhing response at 5 mg/kg, ip administered 30 mins prior to acetic acid challenge measured for 10 to 20 mins

Compound: CN1C(=O)CN=C(c2ccccc2)c2cc(Cl)ccc21 [DIAZEPAM]
- Activity [1]: Toxic

Compound: Cn1cnc(C[C@H]2COC(=O)[C@@H]2[C@H](O)c2ccccc2)c1 [EPIISOPILOTURINE]
- Activity [2]: inactive
- inhibition in vivo at 1 mg/kg [3]: 89.2%
- inhibition in vivo at 1 mg/kg [4]: 58.2%
- Activity [5]: Non-toxic
- Activity [6]: inactive
- inhibition in vivo at 1 mg/kg [7]: 66.4%
- Activity [8]: Active
- Activity [9]: Active
- inhibition in vivo at 1 mg/kg [10]: 73.8%
- inhibition in vivo at 1 mg/kg [11]: 55.2%
- Activity [12]: 3.8 U
- inhibition [13]: inactive
- inhibition in vivo at 1 mg/kg [14]: 76.9%
- inhibition in vivo at 1 mg/kg [15]: 46.7%
- inhibition in vivo at 1 mg/kg [16]: 54.1%
- inhibition in vivo at 1 mg/kg [17]: 73%
- inhibition in vivo at 0.3 mg/kg [18]: 67.6%
- inhibition in vivo at 0.1 mg/kg [19]: 49.7%
- inhibition in vivo at 1 mg/kg [20]: 85%
- inhibition in vivo at 0.3 mg/kg [21]: 70%
- inhibition in vivo at 0.1 mg/kg [22]: 55%
- inhibition in vivo at 1 mg/kg [23]: 79.5%
- inhibition in vivo at 0.3 mg/kg [24]: 71.3%
- inhibition in vivo at 0.1 mg/kg [25]: 46.8%
- inhibition in vivo at 1 mg/kg [26]: 65%
- inhibition in vivo at 0.3 mg/kg [27]: 48%
- inhibition in vivo at 0.1 mg/kg [28]: 36%

Compound: COc1ccc2c(c1)c(CC(=O)O)c(C)n2C(=O)c1ccc(Cl)cc1 [INDOMETHACIN]
- inhibition in vivo at 10 mg/kg [29]: 79.6%
- inhibition in vivo at 10 mg/kg [30]: 60.2%
- Activity [31]: 3.1 U
- inhibition [32]: Active
- inhibition [33]: Active
- inhibition [34]: Active
- inhibition [35]: Active
- inhibition in vivo at 10 mg/kg [36]: 37%
- inhibition in vivo at 10 mg/kg [37]: 43.7%
- inhibition in vivo at 10 mg/kg [38]: 50.9%
- inhibition in vivo at 10 mg/kg [39]: 55%

Compound: CN1CC[C@]23c4c5ccc(O)c4O[C@H]2[C@@H](O)C=C[C@H]3[C@H]1C5 [MORPHINE]
- Activity [40]: Active
- inhibition in vivo at 5 mg/kg [41]: 97.2%
- inhibition in vivo at 5 mg/kg [42]: 94%
- inhibition in vivo at 5 mg/kg [43]: 98.3%
